The values below come from US12084420B2, “Indoline compounds for inhibiting KIF18A” (Volastra Therapeutics, Inc., priority 2021, dated 2024).

Structures are written as SMILES. pIC50, pKi: −log10 of the molar value. Where two headings read alike, the source gives them in different places.

Test [1] addresses KIF18a-Microtubule Complex (Homo sapiens (Human), UniProt Q8NI77). Description: Binding kinetics to KIF18a-microtubule complex (global progress curve analysis). To be noted: for pKi: read-out: KI (determined from binding kinetic assay koff/kon), koff/kon; for koff: read-out: koff (off-rate from binding kinetics assay). Put shortly: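 kon and koff determined by global progress curve analysis, with ADP formation measured by ADP-Glo. Time- and dose-dependent progress curves were globally fitted to a Michaelis-Menten model with one-step slow-binding inhibition.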

In a further test the test system is HCC15 cells. As to the kind of experiment: Cell viability of KIF18a-sensitive cell lines, HCC15 (Cell Titre-Glo, 7 days). To be noted: HCC-15 cells, 7 days, Cell Titre-Glo, read-out: HCC-15 IC50. The class given is cell-based. In outline:
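Seeding was 24 h before dosing: HCC15 at 600 cells/well in RPMI-1640/10% FBS, OVCAR-3 at 1000 cells/well in RPMI-1640/20% FBS plus insulin, JIMT-1 at 1000 cells/well in DMEM/10% FBS. After serially diluted compound, cells grew 7 days at 37° C. Cell Titre-Glo luminescence was converted to ATP; IC50 came from a four-parameter fit.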

In the next test the test system is NIH:OVCAR-3 cells. As to the kind of experiment: Cell viability of KIF18a-sensitive cell lines, NIH:OVCAR-3 (Cell Titre-Glo, 7 days). The class given is cell-based. To be noted: NIH-OVCAR3 cells, 7 days, Cell Titre-Glo, read-out: NIH-OVCAR3 IC50. How it is done: (§1) Cell Viability of KIF18a-Sensitive Cell Lines
(§2) Cell lines were seeded as follows 24 hours before compound treatment: HCC15 (Korean Cell Line Bank) 600 cell/well, 95 μL of RPMI-1640 media supplemented with 100 units/mL penicillin, 100 units/mL streptomycin and 10% FBS; NIH:OVCAR-3 (ATCC), 1000 cell/well, 95 μL of RPMI-1640 media supplemented with 100 units/mL penicillin, 100 units/mL streptomycin, 0.01 mg/mL bovine insulin, and 20% FBS; JIMT-1 (Addexbio) 1000 cell/well, 95 μL of DMEM media supplemented with 100 units/mL penicillin, 100 units/mL streptomycin, and 10% FBS.
(§3) Test compounds were added to cells in a 20× dilution scheme by adding 5 μL of serially diluted compound to the plate, and the treated cells were incubated for an additional 7 days in a 37° C., 5% CO2 incubator. DMSO was used as the negative control (0% effect), and wells omitting cells were used as the positive control (100% effect). The cells were incubated for seven days, and cell viability determined via the Promega Cell Titre-Glo® Assay kit. Luminescence units were converted to ATP concentrations via an ATP standard curve (10 point, 2-fold dilution from 5 uM). % Inhibition was calculated for each well as: ([max−min]−[test−min])/[max−min]. IC50 values were calculated from concentration vs. % Inhibition data via a four-parameter variable slope model.

For the next test, the system named is JIMT-1 cells. As to the kind of experiment: Cell viability of KIF18a-sensitive cell lines, JIMT-1 (Cell Titre-Glo, 7 days). The test is classed as cell-based. To be noted: JIMT-1 cells, 7 days, Cell Titre-Glo, read-out: JIMT-1 IC50. How it is done:
as §1, §2, §3

The target in another test is hKIF18A (1-374) (Homo sapiens (Human), UniProt Q8NI77). Description: Inhibition of KIF18A microtubule-dependent ATPase activity (ADP-Glo). The note with it: KIF18A microtubule-dependent ATPase activity, biochemical assay. In general terms: In ADP-Glo the light output rises with the ADP produced.
Sequence of hKIF18A (1-374) (Q8NI77 whole entry, looked up): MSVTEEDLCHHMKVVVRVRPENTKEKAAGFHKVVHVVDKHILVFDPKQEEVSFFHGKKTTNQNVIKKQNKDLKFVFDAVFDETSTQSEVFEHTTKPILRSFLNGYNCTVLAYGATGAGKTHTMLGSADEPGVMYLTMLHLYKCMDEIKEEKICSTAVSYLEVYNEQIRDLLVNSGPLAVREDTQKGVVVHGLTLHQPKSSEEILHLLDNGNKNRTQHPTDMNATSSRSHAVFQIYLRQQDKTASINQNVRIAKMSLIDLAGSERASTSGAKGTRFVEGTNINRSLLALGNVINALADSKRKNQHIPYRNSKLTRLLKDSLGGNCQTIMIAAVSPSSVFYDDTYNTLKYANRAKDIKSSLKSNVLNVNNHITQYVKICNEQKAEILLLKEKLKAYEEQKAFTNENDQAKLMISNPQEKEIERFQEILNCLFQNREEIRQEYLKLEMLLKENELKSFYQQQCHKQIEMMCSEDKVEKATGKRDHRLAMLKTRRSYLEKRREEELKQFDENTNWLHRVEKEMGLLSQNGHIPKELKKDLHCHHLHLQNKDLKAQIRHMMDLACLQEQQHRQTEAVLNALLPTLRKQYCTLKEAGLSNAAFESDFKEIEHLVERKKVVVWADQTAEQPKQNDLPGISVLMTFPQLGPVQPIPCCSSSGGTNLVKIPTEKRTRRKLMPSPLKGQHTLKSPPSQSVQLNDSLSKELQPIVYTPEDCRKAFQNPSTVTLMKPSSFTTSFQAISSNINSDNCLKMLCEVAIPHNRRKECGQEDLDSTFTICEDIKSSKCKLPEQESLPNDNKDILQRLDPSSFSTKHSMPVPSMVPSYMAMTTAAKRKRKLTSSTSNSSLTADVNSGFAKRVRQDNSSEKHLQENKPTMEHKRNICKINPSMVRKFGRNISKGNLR
Sequence of hKIF18A (1-374) (Q2XVP4 whole entry partner, looked up): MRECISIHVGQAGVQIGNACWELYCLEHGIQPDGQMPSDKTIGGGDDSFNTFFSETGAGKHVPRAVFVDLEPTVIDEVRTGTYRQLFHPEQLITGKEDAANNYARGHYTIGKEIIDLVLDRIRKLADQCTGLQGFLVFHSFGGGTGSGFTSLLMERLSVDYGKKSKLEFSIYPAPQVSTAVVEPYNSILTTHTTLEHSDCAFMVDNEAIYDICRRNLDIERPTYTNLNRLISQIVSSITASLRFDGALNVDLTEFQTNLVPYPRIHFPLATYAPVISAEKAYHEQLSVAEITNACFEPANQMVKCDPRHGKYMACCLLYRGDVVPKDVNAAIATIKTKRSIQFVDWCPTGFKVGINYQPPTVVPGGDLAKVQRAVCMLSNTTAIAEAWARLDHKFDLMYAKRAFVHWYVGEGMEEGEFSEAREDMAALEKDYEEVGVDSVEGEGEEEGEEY
Sequence of hKIF18A (1-374) (P02554 whole entry partner, looked up): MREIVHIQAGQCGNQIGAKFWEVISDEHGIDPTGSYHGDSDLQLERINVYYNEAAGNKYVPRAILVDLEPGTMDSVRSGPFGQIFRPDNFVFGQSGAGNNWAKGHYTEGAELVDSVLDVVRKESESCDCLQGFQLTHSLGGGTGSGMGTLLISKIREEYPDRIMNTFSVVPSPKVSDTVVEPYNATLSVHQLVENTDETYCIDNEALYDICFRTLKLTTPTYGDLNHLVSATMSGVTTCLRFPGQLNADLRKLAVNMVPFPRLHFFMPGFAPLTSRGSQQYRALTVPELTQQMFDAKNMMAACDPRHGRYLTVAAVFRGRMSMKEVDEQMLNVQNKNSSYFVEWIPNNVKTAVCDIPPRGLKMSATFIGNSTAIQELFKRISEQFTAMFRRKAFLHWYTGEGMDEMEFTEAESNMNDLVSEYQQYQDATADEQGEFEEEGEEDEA

Sequence of KIF18a-Microtubule Complex (Q8NI77 whole entry, looked up): as the sequence (Q8NI77 whole entry, looked up) above
Sequence of KIF18a-Microtubule Complex (Q2XVP4 whole entry partner, looked up): as the sequence (Q2XVP4 whole entry partner, looked up) above
Sequence of KIF18a-Microtubule Complex (P02554 whole entry partner, looked up): as the sequence (P02554 whole entry partner, looked up) above

As to `CC(C)(C)NS(=O)(=O)c1cc(C(=O)N2CC3(CCC4(CC4)CC3)c3cc(NS(C)(=O)=O)ccc32)ccc1F` [Compound 159, N-(tert-butyl)-2-fluoro-5-(5″- (methylsulfonamido)dispiro[cyclopropane-1,1′-cyclohexane-4′,3″-indoline]-1″-carbonyl)benzenesulfonamide], the “kon (on-rate from binding kinetics assay)” value (“kon” for short) in test [1] (global progress curve analysis) was found to be 7220 M⁻¹ s⁻¹. For the same compound, the “disc. t1/2 (dissociation half-life ln(2)/koff)” value in test [1] was determined as 32 h. For the same compound, the pKi in test [1] is 9.08. Further, the koff (in general, the rate constant with which the complex falls apart) in test [1] was 6.11e-06 s⁻¹. The pIC50 – broadly, the negative decadic logarithm of the IC50, by convention in mol/L – is 7.68 with HCC15 cells (HCC15, 168 h); 7.66 in the test on NIH:OVCAR-3 cells (Homo sapiens, OVCAR-3, 168 h); 7.82 in the test on JIMT-1 cells (Homo sapiens, 168 h); 7.72 against hKIF18A (1-374).
With `CC(C)(C)NS(=O)(=O)c1cccc(C(=O)N2CC3(CCC4(CC4)CC3)c3cc(NS(=O)(=O)C4CC4)ccc32)c1` [Compound 160, N-(tert-butyl)-3-(5″- (cyclopropanesulfonamido)dispiro [cyclopropane-1,1′-cyclohexane-4′,3″- indoline]-1″- carbonyl)benzenesulfonamide], the “kon” value in test [1] (global progress curve analysis) amounted to 10600 M⁻¹ s⁻¹. Besides, the “disc. t1/2 (dissociation half-life ln(2)/koff)” value in test [1] is 33 h. Further, in test [1], the pKi is 9.27. Also, in test [1], the koff was 5.83e-06 s⁻¹. Further, the pIC50 was 8.12 in the test with HCC15 cells (HCC15, 168 h); 8.10 with NIH:OVCAR-3 cells (Homo sapiens, OVCAR-3, 168 h); 8.27 in the test on JIMT-1 cells (Homo sapiens, 168 h); 7.70 at hKIF18A (1-374).
As to `CS(=O)(=O)Nc1ccc2c(c1)C1(CCC3(CC3)CC1)CN2C(=O)c1cccc(S(=O)(=O)NC2CC(F)(F)C2)c1` [Compound 192, N-(3,3-difluorocyclobutyl)-3-(5″- (methylsulfonamido)dispiro[cyclopropane-1,1′-cyclohexane-4′,3″-indoline]-1″-carbonyl)benzenesulfonamide], in test [1] (global progress curve analysis), the “kon” value was found to be 14400 M⁻¹ s⁻¹. The “disc. t1/2 (dissociation half-life ln(2)/koff)” value in test [1] is reported as 21 h. In addition, the pKi in test [1] is 9.19. Besides, the koff in test [1] is 9.17e-06 s⁻¹. The negative logarithm of the IC50 (pIC50) in the test with HCC15 cells (HCC15, 168 h) is 6.29; with NIH:OVCAR-3 cells (Homo sapiens, OVCAR-3, 168 h), 6.39; with JIMT-1 cells (Homo sapiens, 168 h), 6.30; against hKIF18A (1-374) it was 8.00.
Consider `CS(=O)(=O)Nc1ccc2c(c1)C1(CCC3(CC3)CC1)CN2C(=O)c1cccc(S(=O)(=O)NC23CC(C2)C3)c1` [Compound 223, N-(bicyclo[1.1.1]pentan-1-yl)-3-(5″-(methylsulfonamido)dispiro[cyclopropane-1,1′-cyclohexane-4′,3″-indoline]-1″-carbonyl)benzenesulfonamide], for which, in test [1] (global progress curve analysis), the “kon” value came to 6390 M⁻¹ s⁻¹. The “disc. t1/2 (dissociation half-life ln(2)/koff)” value in test [1] turned out to be 7.9 h. In test [1], the pKi is 9.59. Also, the koff in test [1] is 2.44e-05 s⁻¹. Besides, the pIC50 in the test with HCC15 cells (HCC15, 168 h) is 7.68; in the test with NIH:OVCAR-3 cells (Homo sapiens, OVCAR-3, 168 h) it was 7.70; with JIMT-1 cells (Homo sapiens, 168 h), 7.82; against hKIF18A (1-374), 8.17.
Turning to `O=C(c1cccc(S(=O)(=O)C2CCCC2)c1)N1CC2(CCC3(CC3)CC2)c2cc(NS(=O)(=O)CCO)ccc21` [Compound 229, N-(1″-(3-(cyclopentylsulfonyl)benzoyl)dispiro [cyclopropane-1,1′-cyclohexane-4′,3″- indolin]-5″-yl)-2-hydroxyethane-1-sulfonamide], the “kon” value in test [1] (global progress curve analysis) came out at 16900 M⁻¹ s⁻¹. The “disc. t1/2 (dissociation half-life ln(2)/koff)” value in test [1] worked out at 39 h. The pKi in test [1] is 9.54. Further, in test [1], the koff was 5e-06 s⁻¹. For the same compound, the pIC50 was 7.96 with HCC15 cells (HCC15, 168 h); 7.89 in the test on NIH:OVCAR-3 cells (Homo sapiens, OVCAR-3, 168 h); 7.96 in the test on JIMT-1 cells (Homo sapiens, 168 h); 8.21 on hKIF18A (1-374).
With `CS(=O)(=O)Nc1ccc2c(c1)C1(CCC3(CC3)CC1)CN2C(=O)c1cccc(S(=O)(=O)N2CC(F)(F)C2)c1` [Compound 257, N-(1″-(3-((3,3-difluoroazetidin-1-yl)sulfonyl)benzoyl)dispiro[cyclopropane-1,1′-cyclohexane-4′,3″-indolin]-5″- yl)methanesulfonamide], in test [1] (global progress curve analysis), the “kon” value was determined as 18300 M⁻¹ s⁻¹. Besides, the “disc. t1/2 (dissociation half-life ln(2)/koff)” value in test [1] worked out at 10 h. Besides, the pKi in test [1] was 9.02. Further, in test [1], the koff was 1.86e-05 s⁻¹. Also, the pIC50 in the test with HCC15 cells (HCC15, 168 h) was 7.68; in the test with NIH:OVCAR-3 cells (Homo sapiens, OVCAR-3, 168 h) it was 7.68; with JIMT-1 cells (Homo sapiens, 168 h), 7.92; on hKIF18A (1-374), 8.08.
For `COc1ccc(C(=O)N2CC3(CCC4(CC4)CC3)c3cc(NS(C)(=O)=O)ccc32)cc1S(=O)(=O)NC(C)(C)C` [Compound 297, N-(tert-butyl)-2-methoxy-5-(5″-(methylsulfonamido)dispiro[cyclopropane-1,1′-cyclohexane-4′,3″-indoline]-1″-carbonyl)benzenesulfonamide], the “kon” value in test [1] (global progress curve analysis) was 10300 M⁻¹ s⁻¹. For the same compound, the “disc. t1/2 (dissociation half-life ln(2)/koff)” value in test [1] is reported as 49 h. Also, the pKi in test [1] is 9.42. In addition, the koff in test [1] is 3.89e-06 s⁻¹. The negative logarithm of the IC50 (pIC50) was 7.96 with HCC15 cells (HCC15, 168 h); 8.00 with NIH:OVCAR-3 cells (Homo sapiens, OVCAR-3, 168 h); 8.01 with JIMT-1 cells (Homo sapiens, 168 h); 7.77 against hKIF18A (1-374).
As to `CCS(=O)(=O)Nc1ccc2c(c1)C1(CCC3(CC3)CC1)CN2C(=O)c1cccc(S(=O)(=O)N2CC3(CCO3)C2)c1` [Compound 320, N-(1″-(3-((1-oxa-6-azaspiro[3.3]heptan-6-yl)sulfonyl)benzoyl)dispiro[cyclopropane-1,1′-cyclohexane-4′,3″-indolin]-5″- yl)ethanesulfonamide], the “kon” value in test [1] (global progress curve analysis) was 7500 M⁻¹ s⁻¹. In test [1], the “disc. t1/2 (dissociation half-life ln(2)/koff)” value is reported as 45 h. Also, in test [1], the pKi is 9.24. Also, in test [1], the off-rate (koff) was 4.17e-06 s⁻¹. The negative-log IC50 (pIC50) in the test on HCC15 cells (HCC15, 168 h) was 7.68; in the test with NIH:OVCAR-3 cells (Homo sapiens, OVCAR-3, 168 h), 7.70; with JIMT-1 cells (Homo sapiens, 168 h) it was 7.85; on hKIF18A (1-374), 7.74.
As to `CS(=O)(=O)Nc1ccc2c(c1)C1(CCC3(CC3)CC1)CN2C(=O)c1cccc(S(=O)(=O)C2CC(F)(F)C2)c1` [Compound 322, N-(1″-(3-((3,3-difluorocyclobutyl)sulfonyl)benzoyl)dispiro[cyclopropane-1,1′-cyclohexane-4′,3″-indolin]-5″- yl)methanesulfonamide], in test [1] (global progress curve analysis), the “kon” value came out at 10300 M⁻¹ s⁻¹. For the same compound, in test [1], the “disc. t1/2 (dissociation half-life ln(2)/koff)” value worked out at 5.7 h. In addition, in test [1], the pKi is 8.48. Further, the koff in test [1] was 3.33e-05 s⁻¹. In addition, the pIC50 was 7.37 in the test with HCC15 cells (HCC15, 168 h); 7.40 in the test on NIH:OVCAR-3 cells (Homo sapiens, OVCAR-3, 168 h); 7.49 with JIMT-1 cells (Homo sapiens, 168 h); 7.68 on hKIF18A (1-374).
`CCS(=O)(=O)Nc1ccc2c(c1)[C@]1(CC[C@@H](C(F)F)CC1)CN2C(=O)c1cccc(S(=O)(=O)NC(C)(C)C)c1` [Compound 333a]: the “koff (off-rate from binding kinetics assay)” value in test [1] (global progress curve analysis) was determined as 3.61e-06 s⁻¹. Further, in test [1] (global progress curve analysis), the “kon” value came out at 7780 M⁻¹ s⁻¹. Further, the “disc. t1/2 (dissociation half-life ln(2)/koff)” value in test [1] is given as 53 h. In test [1], the pKi was 9.33. Besides, the pIC50 in the test on HCC15 cells was 7.66; in the test on NIH:OVCAR-3 cells, 7.77; in the test with JIMT-1 cells, 7.62; on hKIF18A (1-374), 7.74.
